Measurements: patent US20210238698A1, “METHODS OF DIAGNOSING AND TREATING CANCER PATIENTS EXPRESSING HIGH LEVELS OF TGF-B RESPONSE SIGNATURE” (MEDPACTO, INC., priority 2018, published 2021)

Test system: patients with advanced solid tumors
Assay: Phase I trial of single administration of Vactosertib, tumor assessment (anti-tumor activity)
Format: in vivo, human
From the text: A ‘responder’ refers to a Patient whose best overall response on treatment was stable disease (SD) or greater, and a ‘non-responder’ refers to a patient whose best overall response on treatment was progression on disease (PD) or worse. The unit for all data of gene expression is TPM (Transcripts Per Kilobase Million). The CD8A gene is implicated in playing an important role in the immune response. The cytolytic score is used to assess anticancer immunity. […]
In particular, the F-TBRS and the cytolytic score in cancer of responders and non-responders at the Phase I trial of single administration of Vactosertib (the compound represented by Formula II; TEW-7197) were analyzed and the results were shown in FIG. 3.
In addition, the EMT/F-TBRS expression distribution from the TCGA database of bladder cancer was analyzed and the results are shown in FIG. 4. […]

Cc1cccc(-c2[nH]c(CNc3ccccc3F)nc2-c2ccc3ncnn3c2)n1 [Vactosertib, N-((4-([1,2,4]triazolo[1,5-a]pyridin-6-yl)-5-(6-methylpyridin-2-yl)-1H-imidazol-2-yl)methyl)-2-fluoroaniline] was tested, and the “patients who achieved SD (stable disease, responder)” value (Phase I, higher doses (≥140 mg, qd)) was “seven” and the tumor shrinkage (one patient with bladder cancer at the Phase I trial, high EMT/F-TBRS expression) was −25%.
